Measurements taken from patent US10167262B2, “Herbicidal substituted 3-arylpyrazoles” (FMC CORPORATION, priority 2014, dated 2019).

Experiments:
Format in all cases: in vivo
[1] = system: green foxtail (Setaria viridis); test: Test C postemergence greenhouse test, plant response rating 0-100; conditions: for Plant response rating, Foxtail, Green: scale 0 to 100
Method in brief: (§1)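 Visual rating vs. controls, 0 (no effect) to 100 (complete control), 13–15 d after postemergence treatment. Potted plants, 1- to 4-leaf stage (2–18 cm), greenhouse-held.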

[2] = system: goosegrass (Eleusine indica); test: as above; conditions: for Plant response rating, Goosegrass: scale 0 to 100
Method in brief: as §1

[3] = system: downy bromegrass (Bromus tectorum); test: as above; conditions: for Plant response rating, Bromegrass, Downy: scale 0 to 100
Method in brief: as §1

[4] = system: bermudagrass (Cynodon dactylon); test: as above; conditions: for Plant response rating, Bermudagrass: scale 0 to 100
Method in brief: as §1

[5] = system: deadnettle (henbit deadnettle, Lamium amplexicaule); test: as above; conditions: for Plant response rating, Deadnettle: scale 0 to 100
Method in brief: as §1

[6] = system: woolly cupgrass (Eriochloa villosa); test: as above; conditions: for Plant response rating, Cupgrass, Woolly: scale 0 to 100
Method in brief: as §1

[7] = system: cocklebur (common cocklebur, Xanthium strumarium); test: as above; conditions: for Plant response rating, Cocklebur: scale 0 to 100
Method in brief: as §1

[8] = system: canarygrass (Phalaris minor); test: as above; conditions: for Plant response rating, Canarygrass: scale 0 to 100
Method in brief: as §1

[9] = system: surinam grass (Brachiaria decumbens); test: as above; conditions: for Plant response rating, Surinam Grass: scale 0 to 100
Method in brief: as §1

[10] = system: waterhemp_RES2, (ALS & HPPD resistant common waterhemp, Amaranthus rudis); test: Test E postemergence greenhouse test, plant response rating 0-100; conditions: scale 0 to 100
Procedure: At the same time, plants from these crop and weed species and also waterhemp_RES1, (ALS & Triazine resistant common waterhemp, Amaranthus rudis), and waterhemp_RES2, (ALS & HPPD resistant common waterhemp, Amaranthus rudis) were planted in pots containing Redi-Earth® planting medium (Scotts Company, 14111 Scottslawn Road, Marysville, Ohio 43041) comprising spaghnum peat moss, vermiculite, wetting agent and starter nutrients were treated with postemergence applications of test chemicals formulated in the same manner. Plants ranged in height from 2 to 18 cm for postemergence treatments (1- to 4-leaf stage).
Treated plants and controls were maintained in a greenhouse for 14 to 21 days, after which time all species were compared to controls and visually evaluated. Plant response ratings, summarized in Table E, are based on a scale of 0 to 100 where 0 is no effect and 100 is complete control. A dash (-) response means no test result.

[11] = system: oilseed rape (Brassica napus); test: Test C pre-/postemergence greenhouse test, plant response rating 0-100
Method in brief: (§2)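 Seeds were sown in a loam soil–sand blend and sprayed preemergence with test chemicals in a non-phytotoxic solvent mixture containing surfactant; postemergence plants in peat/vermiculite medium were treated at 2–18 cm (1- to 4-leaf stage). After 13 to 15 days in the greenhouse, injury was rated visually against untreated controls.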

[12] = system: waterhemp (common waterhemp, Amaranthus rudis); test: as above
Method in brief: as §2

[13] = system: barnyardgrass (Echinochloa crus-galli); test: as above
Method in brief: as §2

[14] = Postemergence, 250 g ai/ha, scale 0 to 100

Cn1cc(C(=O)c2cccs2)c(-c2cc(Cl)cc(Cl)c2)n1 [Compound 17]
Plant response rating (0 to 100), Foxtail, Green ([1]; 62 g ai/ha): 0 | Plant response rating (0 to 100), Foxtail, Green ([1]; 125 g ai/ha): 0 | Plant response rating, Foxtail, Green ([1]; 250 g ai/ha): 0 | Plant response rating, Foxtail, Green ([1]; 500 g ai/ha): 0 | Plant response rating (0 to 100), Goosegrass ([2]; 62 g ai/ha): 0 | Plant response rating (0 to 100), Goosegrass ([2]; 125 g ai/ha): 0 | Plant response rating, Goosegrass ([2]; 250 g ai/ha): 5 | Plant response rating, Goosegrass ([2]; 500 g ai/ha): 5 | Plant response rating (0 to 100), Bromegrass, Downy ([3]; 62 g ai/ha): 0 | Plant response rating, Bromegrass, Downy ([3]; 125 g ai/ha): 0 | Plant response rating, Bromegrass, Downy ([3]; 250 g ai/ha): 0 | Plant response rating, Bromegrass, Downy ([3]; 500 g ai/ha): 0 | Plant response rating (0 to 100), Bermudagrass ([4]; 62 g ai/ha): 0 | Plant response rating, Bermudagrass ([4]; 125 g ai/ha): 0 | Plant response rating, Bermudagrass ([4]; 250 g ai/ha): 0 | Plant response rating, Bermudagrass ([4]; 500 g ai/ha): 0 | Plant response rating (0 to 100), Deadnettle ([5]; 62 g ai/ha): 0 | Plant response rating (0 to 100), Deadnettle ([5]; 125 g ai/ha): 0 | Plant response rating, Deadnettle ([5]; 250 g ai/ha): 0 | Plant response rating, Deadnettle ([5]; 500 g ai/ha): 0 | Plant response rating (0 to 100), Cupgrass, Woolly ([6]; 62 g ai/ha): 0 | Plant response rating (0 to 100), Cupgrass, Woolly ([6]; 125 g ai/ha): 0 | Plant response rating, Cupgrass, Woolly ([6]; 250 g ai/ha): 0 | Plant response rating, Cupgrass, Woolly ([6]; 500 g ai/ha): 15 | Plant response rating (0 to 100), Cocklebur ([7]; 62 g ai/ha): 5 | Plant response rating (0 to 100), Cocklebur ([7]; 125 g ai/ha): 10 | Plant response rating, Cocklebur ([7]; 250 g ai/ha): 30 | Plant response rating, Cocklebur ([7]; 500 g ai/ha): 40 | Plant response rating (0 to 100), Canarygrass ([8]; 62 g ai/ha): 0 | Plant response rating (0 to 100), Canarygrass ([8]; 125 g ai/ha): 0 | Plant response rating, Canarygrass ([8]; 250 g ai/ha): 0 | Plant response rating, Canarygrass ([8]; 500 g ai/ha): 5 | Plant response rating (0 to 100), Surinam Grass ([9]; 62 g ai/ha): 0 | Plant response rating (0 to 100), Surinam Grass ([9]; 125 g ai/ha): 0 | Plant response rating, Surinam Grass ([9]; 250 g ai/ha): 5 | Plant response rating, Surinam Grass ([9]; 500 g ai/ha): 5 | Plant response rating, Waterhemp_RES2 ([10]; 31 g ai/ha): 60 | Plant response rating, Waterhemp_RES2 ([10]; 62 g ai/ha): 75 | Plant response rating, Waterhemp_RES2 ([10]; 125 g ai/ha): 80 | Plant response rating, Waterhemp_RES2 ([10]; 250 g ai/ha): 85 | Plant response rating, Waterhemp_RES2 ([10]; 500 g ai/ha): 95

O=C(c1cncc(F)c1)c1c[nH]nc1-c1cc(Cl)cc(Cl)c1 [Compound 19]
Plant response rating (0 to 100), Oilseed Rape ([11]; Postemergence, 62 g ai/ha): 0 | Plant response rating (0 to 100), Oilseed Rape ([11]; Postemergence, 125 g ai/ha): 0 | Plant response rating, Oilseed Rape [11, 14]: 5 | Plant response rating, Oilseed Rape ([11]; Preemergence, 31 g ai/ha): 0 | Plant response rating, Oilseed Rape ([11]; Preemergence, 62 g ai/ha): 0 | Plant response rating, Oilseed Rape ([11]; Preemergence, 125 g ai/ha): 80 | Plant response rating, Oilseed Rape ([11]; Preemergence, 250 g ai/ha): 80 | Plant response rating (0 to 100), Waterhemp ([12]; Postemergence, 62 g ai/ha): 65 | Plant response rating (0 to 100), Waterhemp ([12]; Postemergence, 125 g ai/ha): 80 | Plant response rating, Waterhemp [12, 14]: 95 | Plant response rating, Waterhemp ([12]; Preemergence, 62 g ai/ha): 100 | Plant response rating, Waterhemp ([12]; Preemergence, 125 g ai/ha): 100 | Plant response rating, Waterhemp ([12]; Preemergence, 250 g ai/ha): 100 | Plant response rating (0 to 100), Barnyardgrass ([13]; Postemergence, 31 g ai/ha): 0 | Plant response rating (0 to 100), Barnyardgrass ([13]; Postemergence, 62 g ai/ha): 0 | Plant response rating, Barnyardgrass ([13]; Postemergence, 125 g ai/ha, scale 0 to 100): 0 | Plant response rating, Barnyardgrass [13, 14]: 0 | Plant response rating, Barnyardgrass ([13]; Preemergence, 31 g ai/ha): 0 | Plant response rating, Barnyardgrass ([13]; Preemergence, 62 g ai/ha): 0 | Plant response rating, Barnyardgrass ([13]; Preemergence, 125 g ai/ha): 0 | Plant response rating, Barnyardgrass ([13]; Preemergence, 250 g ai/ha): 0
